What was measured:
[1] = molecular target: T1, HDAC6 (Homo sapiens, UniProt Q9UBN7); assay: Two-step fluorogenic deacetylase assay, recombinant HDAC6; format: biochemical; conditions: up to 50 µM
T1 construct: full length HDAC6 (cat#50006); purchased BPS Bioscience (San Diego, CA) 50006
Text: (§1) To assess the biochemical and cellular potency of 4b and its conversion products/metabolites, we utilized the two-step fluorogenic assay which measures the HDAC-mediated catalytic conversion of synthetic acetylated lysine substrates. In brief, on deacetylation of the substrates by HDAC activity, a protease site is unmasked which allows subsequent trypsin-mediated cleavage and release of the highly flourescent AMC molecules in a subsequent step of the assay. The substrates used were Lys_Ac_AMC (Bachem I-1875) for HDAC3 and (Ac)Arg-Gly-Lys(Ac) (Bachem I-1925) for HDAC1 and HDAC2. […] However, the relatively labile and sterically more demanding trifluoracetyl group is readily hydrolyzed by the catalytically less avid Class IIa enzymes, allowing measurement of Class IIa activity using the 2-step fluorogenic assay. […]
(§2) For evaluation of the class selectivity of the compounds, we assessed inhibition against purified recombinant human full length HDAC1 (cat# 50051), HDAC2 (cat# 50052), HDAC3-NcoR2 (cat# 50003) and HDAC8 (cat# 50008): as representative of Class I activity; catalytic domain HDAC4(αα 648–1057), HDAC5 (αα 657–1123; cat # 50005), HDAC7 (αα 518-end; cat # 50007) and HDAC9 (αα 604–1066; cat # 50009) activity: representing all Class IIa activity; and full length HDAC6 (cat#50006): representing Class IIb activity. […]

[2] = Partition into erythrocytes; format: in vitro ADME; conditions: mouse
[3] = Plasma stability; format: in vitro ADME, mouse; conditions: fresh mouse plasma, 5 µM; for half-life at 5 µM: pooled mouse plasma, duplicates
Procedure: Incubations of test compound (5 µM initial concentration, n = 2) were carried out with pooled mouse plasma or BSA (45 mg/mL in 0.1 M phosphate buffered saline). The incubations were performed at 37°C. Samples (50 µL) were obtained from the incubation at 0, 10, 30, 120, 240, 360 and 1440 min, and added to 150 µL of acetonitrile containing carbamazepine as analytical internal standard to terminate the reaction. Samples were centrifuged and the supernatant fractions analysed by LC-MS/MS.
For half-life determinations, the instrument responses (peak areas) normalized for internal standard response, were referenced to the zero time-point samples (as 100%) in order to determine the percentage of compound remaining. Ln plots of the % remaining, for each compound, were used to determine the half-life for the plasma incubations. Half-life values were calculated from the relationship:-. [drawing 1] Where λ was the slope of the natural logarithmic (Ln) concentration vs time curve.
When quantification was required, calibration standards for parent compound and metabolites were prepared in control plasma and extracted and analysed as described for the study samples. Quantification of parent compound or metabolite was by extrapolation from the calibration line.

[4] = molecular target: T2, human recombinant HDAC8 (Homo sapiens, UniProt Q9BY41); assay: Two-step fluorogenic deacetylase assay, recombinant HDAC8; format: biochemical; conditions: up to 50 µM
T2 construct: purified recombinant human full length HDAC1 (cat# 50051), HDAC2 (cat# 50052), HDAC3-NcoR2 (cat# 50003) and HDAC8 (cat# 50008); purchased BPS Bioscience (San Diego, CA) 50008
T2 sequence (Q9BY41 whole entry): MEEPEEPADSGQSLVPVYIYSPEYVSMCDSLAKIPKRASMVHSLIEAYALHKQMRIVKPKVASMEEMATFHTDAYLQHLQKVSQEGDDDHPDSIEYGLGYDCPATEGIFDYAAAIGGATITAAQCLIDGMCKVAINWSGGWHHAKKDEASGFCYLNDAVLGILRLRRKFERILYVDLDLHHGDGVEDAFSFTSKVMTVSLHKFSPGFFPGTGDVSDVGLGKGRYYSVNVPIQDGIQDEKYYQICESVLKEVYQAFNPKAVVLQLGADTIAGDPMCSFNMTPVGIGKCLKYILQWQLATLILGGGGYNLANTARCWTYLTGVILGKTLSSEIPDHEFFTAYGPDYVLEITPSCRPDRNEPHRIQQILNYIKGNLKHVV
Text: as §1, §2

[5] = molecular target: T3, human recombinant HDAC1 (Homo sapiens, UniProt Q13547); assay: Two-step fluorogenic deacetylase assay, recombinant HDAC1; format: biochemical
T3 construct: purified recombinant human full length HDAC1 (cat# 50051); purchased BPS Bioscience (San Diego, CA) 50051
T3 sequence (Q13547 whole entry): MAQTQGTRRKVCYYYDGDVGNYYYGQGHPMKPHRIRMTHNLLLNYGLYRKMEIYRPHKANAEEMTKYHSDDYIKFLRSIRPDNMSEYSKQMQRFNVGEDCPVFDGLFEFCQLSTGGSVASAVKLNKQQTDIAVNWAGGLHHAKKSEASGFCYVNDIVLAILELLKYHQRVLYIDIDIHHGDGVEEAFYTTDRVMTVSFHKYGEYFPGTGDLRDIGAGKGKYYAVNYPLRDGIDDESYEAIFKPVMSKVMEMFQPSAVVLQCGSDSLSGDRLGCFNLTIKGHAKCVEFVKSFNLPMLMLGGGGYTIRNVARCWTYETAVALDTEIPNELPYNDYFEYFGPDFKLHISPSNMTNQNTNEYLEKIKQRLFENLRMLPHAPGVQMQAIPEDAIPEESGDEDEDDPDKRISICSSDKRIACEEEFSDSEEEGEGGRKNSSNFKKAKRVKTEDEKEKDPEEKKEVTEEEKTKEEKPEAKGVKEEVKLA
Text: as §1, §2

[6] = molecular target: T4, catalytic domain HDAC4 (Homo sapiens, UniProt P56524); assay: Two-step fluorogenic deacetylase assay, recombinant HDAC4; format: biochemical; conditions: up to 50 µM
T4 construct: catalytic domain HDAC4(αα 648–1057); purchased Emerald Biosciences (Seattle, WA)
T4 sequence (P56524 648-1057): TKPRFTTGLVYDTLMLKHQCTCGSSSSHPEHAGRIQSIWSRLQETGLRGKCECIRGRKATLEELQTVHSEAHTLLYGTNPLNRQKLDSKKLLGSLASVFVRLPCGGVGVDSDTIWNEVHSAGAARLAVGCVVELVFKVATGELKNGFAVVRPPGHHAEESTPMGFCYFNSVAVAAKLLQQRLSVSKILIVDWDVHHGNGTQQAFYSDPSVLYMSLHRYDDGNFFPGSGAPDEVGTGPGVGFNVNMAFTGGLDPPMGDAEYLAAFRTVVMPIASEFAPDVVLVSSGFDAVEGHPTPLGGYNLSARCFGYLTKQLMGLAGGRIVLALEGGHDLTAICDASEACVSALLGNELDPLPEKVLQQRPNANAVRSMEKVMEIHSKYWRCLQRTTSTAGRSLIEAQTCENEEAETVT
Text: as §1, §2

T1 sequence (Q9UBN7 whole entry): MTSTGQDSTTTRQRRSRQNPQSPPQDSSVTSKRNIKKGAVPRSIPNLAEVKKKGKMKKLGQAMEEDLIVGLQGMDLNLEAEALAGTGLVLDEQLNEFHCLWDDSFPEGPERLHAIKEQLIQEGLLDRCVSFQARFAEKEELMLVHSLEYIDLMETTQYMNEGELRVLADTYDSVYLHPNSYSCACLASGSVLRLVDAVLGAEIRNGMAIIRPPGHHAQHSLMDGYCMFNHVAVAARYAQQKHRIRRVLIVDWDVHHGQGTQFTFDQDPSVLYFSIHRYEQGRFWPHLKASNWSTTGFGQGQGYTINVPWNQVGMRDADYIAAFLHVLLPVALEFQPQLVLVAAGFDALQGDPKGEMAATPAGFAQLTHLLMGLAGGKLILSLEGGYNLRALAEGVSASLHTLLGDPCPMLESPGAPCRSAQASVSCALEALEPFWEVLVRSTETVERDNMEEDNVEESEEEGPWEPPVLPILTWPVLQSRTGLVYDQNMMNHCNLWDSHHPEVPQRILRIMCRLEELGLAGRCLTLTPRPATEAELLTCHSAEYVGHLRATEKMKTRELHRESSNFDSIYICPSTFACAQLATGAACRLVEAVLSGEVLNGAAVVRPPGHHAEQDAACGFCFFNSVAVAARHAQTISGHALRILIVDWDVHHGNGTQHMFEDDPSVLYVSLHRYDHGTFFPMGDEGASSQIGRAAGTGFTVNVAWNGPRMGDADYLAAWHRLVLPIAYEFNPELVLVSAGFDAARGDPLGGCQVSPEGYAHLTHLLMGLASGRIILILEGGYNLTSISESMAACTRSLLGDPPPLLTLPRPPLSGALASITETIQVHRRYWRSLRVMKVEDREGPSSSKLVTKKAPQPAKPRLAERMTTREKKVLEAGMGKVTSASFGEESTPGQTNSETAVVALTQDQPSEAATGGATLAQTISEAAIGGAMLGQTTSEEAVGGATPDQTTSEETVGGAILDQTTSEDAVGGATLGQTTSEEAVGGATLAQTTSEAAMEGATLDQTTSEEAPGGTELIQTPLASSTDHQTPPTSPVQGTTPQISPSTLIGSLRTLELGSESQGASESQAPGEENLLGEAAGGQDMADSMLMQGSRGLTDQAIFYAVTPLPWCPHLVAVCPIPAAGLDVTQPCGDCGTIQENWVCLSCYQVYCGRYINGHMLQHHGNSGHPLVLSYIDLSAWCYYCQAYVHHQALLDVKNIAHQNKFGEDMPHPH

SMILES	activity against HDAC6 [1]	concentrations in whole blood relative to plasma [2]	blood plasma ratio ([2]; whole blood, data not shown)	time to complete conversion to amide hydrolysis products (M1 and M2) [3] [h]	half-life at 5 µM [3] [h]	activity against HDAC8 [4]	IC50 [5] [nM]	activity against HDAC4 [6]
Nc1ccccc1NC(=O)CCCCCC(=O)Nc1ccccc1 [Compound 4b]	No activity	approximately 4 times	~3	≤ 6	1.9	No activity	1510	No activity
O=C(CCCCCc1nc2ccccc2[nH]1)Nc1ccccc1 [Compound C1, 6-(1-H-benzo[d]imidazol-2-yl)-N-phenylhexanamide]	–	–	–	–	3.6	–	–	–

From article PMC3433414, “Oral Administration of the Pimelic Diphenylamide HDAC Inhibitor HDACi 4b Is Unsuitable for Chronic Inhibition of HDAC Activity in the CNS In Vivo” (PLoS ONE, 2012)
